Results on 1 compound are retold here after the NIST ThermoML archive (doi:10.1016/j.tca.2004.12.009).

Data set [1] in a line: Molar enthalpy of transition or fusion. Particulars: DSC.
The conditions of data set [2]: DTA.

The structures appear in SMILES notation. Numbers after ± are expanded uncertainties.

On to `NC(N)=Nc1nc(CSCC/C(N)=N/S(N)(=O)=O)cs1` [famotidine], for which the “Molar enthalpy of transition or fusion” value is 13.2 ± 0.43 kcal/mol in data set [1] (Crystal 1) and 12.2 ± 0.813 kcal/mol in data set [1] (Metastable crystal). The Normal melting temperature in data set [2] (Crystal 1) came out at 170.60 ± 0.6 °C; in data set [2] (Metastable crystal), 162.90 ± 0.9 °C.
